Measured values from ChEMBL document CHEMBL1201862, “PubChem BioAssay data set” (2004).
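Tested at 5 concentrations; 48 h exposure; 96-well plates; endpoints linearly interpolated, else capped at highest concentration. The concentration for 50% growth inhibition is given as GI50.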 Active and inactive are the calls of the source. Cut-off read from the data, not from the text of the source: active = GI50 up to about 1.1 µM and inactive = higher.

Legend:
Test in all cases: NCI tumour cell line growth inhibition, 48 h
ACHN = tested on: ACHN
CAKI-1 = tested on: CAKI-1
HCT-116 = tested on: HCT-116
HL-60 = tested on: HL-60
HOP-62 = tested on: HOP-62
HT-29 = tested on: HT-29
IGROV-1 = tested on: IGROV-1
K562 = tested on: K562
M14 = tested on: M14
MDA-MB-435 = tested on: MDA-MB-435
NCI-H23 = tested on: NCI-H23
OVCAR-4 = tested on: OVCAR-4
RPMI-8226 = tested on: RPMI-8226
RXF 393 = tested on: RXF 393
SF-268 = tested on: SF-268
SF-295 = tested on: SF-295
SK-MEL-5 = tested on: SK-MEL-5
SK-OV-3 = tested on: SK-OV-3
UACC-257 = tested on: UACC-257
MOLT-4 = tested on: MOLT-4

Measured: GI50

CN(C)S(=O)(=O)Nc1ccccn1
inactive: ACHN > 100 µM | CAKI-1 > 100 µM | HCT-116 > 100 µM | HL-60 > 100 µM | HOP-62 > 100 µM | HT-29 > 100 µM | IGROV-1 > 100 µM | K562 > 100 µM | M14 > 100 µM | MDA-MB-435 > 100 µM | NCI-H23 > 100 µM | OVCAR-4 > 100 µM | RPMI-8226 > 100 µM | RXF 393 > 100 µM | SF-268 > 100 µM | SF-295 > 100 µM | SK-MEL-5 > 100 µM | SK-OV-3 > 100 µM | UACC-257 > 100 µM

O=C(O)CN1C(=O)CN=C(c2ccccn2)c2cc(Cl)ccc21
inactive: ACHN > 100 µM | CAKI-1 > 100 µM | HCT-116 > 100 µM | HL-60 4.31 µM | HOP-62 > 100 µM | HT-29 > 100 µM | IGROV-1 > 100 µM | K562 > 100 µM | M14 > 100 µM | MDA-MB-435 > 100 µM | MOLT-4 1.24 µM | OVCAR-4 > 100 µM | RPMI-8226 > 100 µM | RXF 393 > 100 µM | SF-268 > 100 µM | SF-295 > 100 µM | SK-MEL-5 > 100 µM | SK-OV-3 > 100 µM | UACC-257 > 100 µM

CCCCCC(=O)NC(=S)Nc1nnn[nH]1
inactive: ACHN > 10 µM | CAKI-1 > 100 µM | HCT-116 > 100 µM | HL-60 > 100 µM | HOP-62 > 100 µM | IGROV-1 > 100 µM | K562 > 100 µM | M14 > 100 µM | MDA-MB-435 > 100 µM | MOLT-4 > 100 µM | NCI-H23 > 100 µM | OVCAR-4 > 100 µM | RPMI-8226 > 100 µM | RXF 393 > 100 µM | SF-268 > 100 µM | SF-295 > 100 µM | SK-MEL-5 > 100 µM | SK-OV-3 > 100 µM | UACC-257 > 100 µM

C[C@H](C(O)CC(=O)C(C)(C)O)[C@H]1CC[C@@]2(C)[C@@H]3CC[C@H]4C(C)(C)[C@@H](OC5OC(COC6OC(CO)C(O)C(O)C6O)C(O)C(O)C5O)CC[C@]4(C)C3=CC[C@]12C (stereo not given in full)
inactive: ACHN > 100 µM | CAKI-1 > 100 µM | HCT-116 > 100 µM | HL-60 > 100 µM | HOP-62 > 100 µM | HT-29 > 100 µM | IGROV-1 > 100 µM | K562 > 100 µM | M14 > 100 µM | MDA-MB-435 > 100 µM | NCI-H23 > 100 µM | OVCAR-4 > 100 µM | RPMI-8226 > 100 µM | RXF 393 > 100 µM | SF-268 > 100 µM | SF-295 > 100 µM | SK-MEL-5 > 100 µM | SK-OV-3 > 100 µM | UACC-257 > 100 µM

Cn1c(-c2cccs2)cc(-c2cccs2)c1-c1ccsc1
inactive: ACHN > 100 µM | CAKI-1 > 100 µM | HCT-116 23.3 µM | HL-60 > 100 µM | HOP-62 53 µM | HT-29 > 100 µM | K562 > 100 µM | M14 > 100 µM | MDA-MB-435 > 100 µM | MOLT-4 > 100 µM | NCI-H23 > 100 µM | OVCAR-4 > 100 µM | RPMI-8226 > 100 µM | RXF 393 3.64 µM | SF-268 > 100 µM | SF-295 > 100 µM | SK-MEL-5 27.2 µM | SK-OV-3 > 100 µM | UACC-257 66.8 µM

Cc1ccc(/C=C2\N=C(N3CCCCC3)NC2=O)cc1
inactive: ACHN > 100 µM | CAKI-1 > 100 µM | HCT-116 > 100 µM | HL-60 71.1 µM | HOP-62 > 100 µM | HT-29 95.9 µM | M14 > 100 µM | MDA-MB-435 > 100 µM | MOLT-4 > 100 µM | NCI-H23 > 100 µM | OVCAR-4 > 100 µM | RPMI-8226 60.8 µM | RXF 393 > 100 µM | SF-268 98.6 µM | SF-295 > 100 µM | SK-OV-3 > 100 µM | UACC-257 > 100 µM

Clc1ccc(-c2nc3cc(Cl)ccc3[nH]2)cc1
inactive: ACHN 39.8 µM | CAKI-1 > 100 µM | HCT-116 22.9 µM | HL-60 39.9 µM | HOP-62 34.4 µM | HT-29 33.6 µM | IGROV-1 43.4 µM | K562 38.9 µM | M14 36.4 µM | MDA-MB-435 27.6 µM | MOLT-4 34.1 µM | NCI-H23 27.6 µM | OVCAR-4 58.1 µM | RPMI-8226 26.8 µM | RXF 393 > 100 µM | SF-268 45.5 µM | SF-295 28.2 µM | SK-MEL-5 32.7 µM | SK-OV-3 39.3 µM | UACC-257 43.3 µM

CCOC(=O)c1nc2ccccc2nc1NCc1ccc(OC)c(OC)c1
inactive: ACHN > 100 µM | CAKI-1 > 100 µM | HCT-116 > 100 µM | HL-60 > 100 µM | HOP-62 > 100 µM | HT-29 > 100 µM | IGROV-1 > 100 µM | K562 > 100 µM | MDA-MB-435 > 100 µM | MOLT-4 > 100 µM | NCI-H23 > 100 µM | OVCAR-4 > 100 µM | RPMI-8226 > 100 µM | RXF 393 27.8 µM | SF-268 > 100 µM | SF-295 > 100 µM | SK-MEL-5 > 100 µM | SK-OV-3 > 100 µM | UACC-257 > 100 µM

CCO[C@@]12CCC3CC4CC[C@@](OCC)(O1)C4C32 (stereo not given in full)
inactive: ACHN > 100 µM | CAKI-1 > 100 µM | HCT-116 > 100 µM | HL-60 > 100 µM | HOP-62 > 100 µM | HT-29 > 100 µM | IGROV-1 > 100 µM | K562 > 100 µM | M14 > 100 µM | MDA-MB-435 > 100 µM | MOLT-4 > 100 µM | NCI-H23 > 100 µM | OVCAR-4 > 100 µM | RPMI-8226 > 100 µM | RXF 393 > 100 µM | SF-268 > 100 µM | SF-295 > 100 µM | SK-MEL-5 > 100 µM | SK-OV-3 > 100 µM | UACC-257 > 100 µM

COC(=O)[C@]1(c2cc3ccccc3[nH]2)CC2CN(C(=O)OCc3ccccc3)C1C=C2OC (stereo not given in full)
inactive: ACHN 25.8 µM | CAKI-1 28.5 µM | HCT-116 28.8 µM | HL-60 22.8 µM | HOP-62 31 µM | HT-29 25.7 µM | IGROV-1 42.7 µM | K562 37.4 µM | M14 20.8 µM | MDA-MB-435 20.7 µM | MOLT-4 22.2 µM | NCI-H23 40.7 µM | OVCAR-4 24.9 µM | RPMI-8226 26.5 µM | RXF 393 22.7 µM | SF-268 37.2 µM | SF-295 27.2 µM | SK-OV-3 36.9 µM | UACC-257 23 µM
